Test results published in patent US4552864A, “Gonadoliberin derivatives process for the preparation and pharmaceutical compositions thereof” (Reanal Finomvegyszergyar, priority 1982, dated 1985).
Like-named read-outs stand apart in the source and are kept apart here.

Test system: adenohypophysis of female Sprague-Dawley rats (cell cultures), LH-hormone released from the cells
Conditions: for ED50 (LH release): rat pituitary cell culture, 4 hours incubation with 10^-7 to 10^-12 molar peptide; for relative activity (GnRH = 1.00): relative LH-releasing activity versus GnRH, from ED50 values
Procedure: The LH-releasing activity of the new peptides according to the invention was tested by the following method, in which for comparison the known gonadoliberin was employed under the same conditions.
The adenohypophysis of female Sprague-Dawley rats weighing 150-200 g each was eliminated and pretrypsinized. Approximately 40-50 pituitaries were placed into separate flasks and allowed to stand in 25 ml of a 0.25% trypsin solution (Sigma, type 111) at 0° to 4° C. for 16 hours. The pituitaries were then stirred under a 5% CO2 atmosphere at 37° C. for 20-25 minutes while they were decomposed to their cells. To the cell suspension soya-bean trypsin inhibitor was added whereupon it was suspended and centrifuged in a Medium 199 solution (with Earle's salts, Flow Laboratories, UK) three times (800 x g, 10 minutes). The cell suspension was padded through a sterile metal filter and the number of cells in one ml was counted. After counting, 3 ml of the cell suspension was dispensed into culture flasks each containing 1.8×10^6 cells. The cells were cultured for 3 days at 37° C. under a 5% CO2 atmosphere. On the 3rd day the medium was replaced by a fresh one and incubation was continued for one more day. On the 4th day the medium was changed again and a medium containing a 10^-7 to 10^-12 molar solution of the peptides to be tested was added to the cell cultures. The cells were incubated with the peptide solutions for 4 hours, the culture solutions were eliminated and the amount of the LH-hormone released from the cells was determined by radioimunoassay.

Glp-His-Trp-Ser-Tyr-D-Cpa-Leu-Arg-Pro-Gly-NH2 [D-Cpa^6 -GnRH]
ED50 (LH release): 0.02063 nM | relative activity (GnRH = 1.00): 16.6

Glp-His-Trp-Ser-Tyr-D-Thx-Leu-Arg-Pro-Gly-NH2 [D-Thx^6 -GnRH]
ED50 (LH release): 0.02892 nM | relative activity (GnRH = 1.00): 11.9

Gonadoliberin [GnRH, reference compound]
ED50 (LH release) (unit as printed for GnRH): 0.343 nM | relative activity (GnRH = 1.00): 1.00
